Series [1] concerns trachea smooth muscle strips of Guinea pig contracted by methaco- line. Nature of the series: Relaxation in vitro of trachea smooth muscle strips contracted by methacholine. Conditions: Cavia porcellus, read-out: ED50 (the source's name). From the text: In particular these latter compounds of the invention are also characterized by pronounced ability to induce relaxation of the bronchial and tracheal smooth muscle.

In series [2] the test system is anhaestetized guinea pigs. Nature of the series: Konzett-Ressler test, resolution of histamine-induced bronchospasm. In kind it is in vivo. The following applies: intrajugular administration; bronchospasm induced by i.v. histamine.
The subject of series [3] is conscious mongrel dogs. Nature of the series: Dog cough test (Stefko procedure, cough induced by electric stimulation of the trachea). It is filed as in vivo. The procedure: (§1) The techniques described by Charlier et al. (Arch. Int. Pharmacodyn. 134, 306, 1961) and by Stefko et al. (J. Pharm. Exp. Therap., 108, 217, 1953), adapted with minor modifications, are used to investigate the antitussive properties of the compounds of the invention. Codeine phosphate is used as positive reference compound.
In the Stefko procedure, conscious mongrel dogs (15+3 kg body weight) are used; the compounds of the invention are tested for their ability to inhibit cough induced by electric stimulation.
Under general anesthesia, two insulated nichrome wires (0.4 mm diameter) are surgically implanted into the submucosa of the trachea.
About two days later, the dogs are placed in a sling and the exteriorized electrodes are connected to an electric stimulating device (such as Grass S 48 Mod.).
The stimulation parameters such as: delay 0.01 msec, duration 1 msec, frequency 30 Hz, are used.
An electrical stimulus of 1 sec is applied 10 times at 5 sec intervals in order to determine the minimum voltage necessary for eliciting reproducible cough responses. Then, tussive responses to the electrical stimuli are registered at 15, 30, 60, 90, 120, 150, 180, 240, 300 and 360 minutes after oral administration of the compounds of the invention.
The tussive responses are scored as follows: • 1: no response; 2: sigh or exaggerated expiration; • 3: marked cough; 4: one marked cough and one exaggerated expiration; 5: two marked coughs.
Six dogs are employed for each determination and the mean activity is calculated.
The inhibition percent of the cough response and the duration of activity are compared with codeine.

Series [4] concerns Guinea pigs. Nature of the series: Guinea pig cough test (Charlier procedure, citric acid aerosol). It is filed as in vivo. The following applies: for ED50: Cavia porcellus, ip, 1 h; for delay of first cough stroke: delay corresponding to the ED50, i.p. The procedure:
as §1
According to the Charlier procedure, Guinea pigs are exposed to a citric acid aerosol (7.5%) and cough is recorded 60 minutes after the antitussive treatment by i.p. route. Male animals of 300-400 g body weight are used in all the experiments. Guinea pigs are placed in a perspex box (20x30x30 cm) connected to an aerosol compressor; the animals are subjected to a citric acid saturated atmosphere, 60 minutes after the i.p. injection of a compound of the invention (0.1 and 0.3 M solutions; 1 ml/kg).
The total number of cough strokes and the delay of the first cough are recorded during the first five minutes.
Five guinea pigs are used for each dose level and the results are compared with controls (vehicle treatment) and codeine phosphate 0.07 M solution (standard treatment).
ED and the corresponding delay of first cough stroke are calculated.
The data obtained by i.p. administration are confirmed by oral administration.

Series [5] concerns male New Zealand white rabbits. Nature of the series: Mucus regulating properties in bronchitic rabbits (5% H2SO3 aerosol), sputum parameters as AUC. In kind it is in vivo. The following applies: for Fucose (mg/ml), AUC as a 100% compared to bronchitic controls / Galactose (mg/ml), AUC as a 100% compared to bronchitic controls / Mucus produc-tion (ml/kg), AUC as a 100% compared to bronchitic controls / Phospho-lipids (mg/ml), AUC as a 100% compared to bronchitic controls / Protein (mg/ml), AUC as a 100% compared to bronchitic controls / Sialic acid (mg/ml), AUC as a 100% compared to bronchitic controls / Viscosity (cps), AUC as a 100% compared to bronchitic controls: Table 2, oral, equimolecular amounts to S-carboxymethyl cysteine. The procedure: The mucus regulating properties of the compounds of the invention are investigated "in vivo" by means of experiments carried out on male New Zealand white rabbits. The animals are submitted to inhalation of a 5% H2S03 aqueous solution by aerosol (exposition of 3 hours a day for 3 alternate days), to induce a chronic bronchial inflammatory disease which causes a production of pathological sputum in the bronchial tree.
Aim of the experiments is to evaluate modifications of selective parameters such as dry weight of the sputum, viscosity, content in proteins, phospholipids, galactose, sialic acid and fucose, induced in this pathological sputum by pharmacological treatment with the compounds of the invention.
To this purpose, the sputum produced in the bronchial tree is collected daily, through a "T" shaped glass cannula, inserted in the trachea, before and after oral twice a day (9.00 a.m. and 4.00 p.m.) treatment with one of the compounds of the invention.
The schedule treatment procedure is shown in the following Schema 1: [drawing 23] where 0 indicates the day of implantation of the tracheal cannula; -7-5-3 indicate the days of H2S03 treatment (H); 1,2,3,4 indicate the days of oral administration of the compounds of the invention (T) and the time of mucus collection (M).
The mucus collected in day 1 in the morning is considered as a blank; 7 indicates the day of the animal sacrifice after the mucus collection.
The sputum samples are stored in the freezer (-20°C) until the investigation of biological and rheological parameters is carried out.
The samples are investigated for relative viscosity, measured at 37°C with a Brookfield viscometer (model LT VD) equipped with a 1,565° cone-plate, and aliquoted for biochemical analysis of protein, phospholipids, galactose, sialic acid and fucose contents. Dry weight of the mucus is also determined. For each parameter, cumulative data are referred to a seven days period after the beginning of the treatment and they are extrapolated using the AUC method (area under curve) calculated by the trapezoidal rule. Finally the data are compared with data obtained from controls (vehicle treatment), non bronchitic rabbits (vehicle treatment) and positive controls bronchitis rabbits treated with 0.153 M 2-carboxymethyl cysteine.

A short description of series [6]: Acute toxicity, LD50 in mice. The following applies: mouse, in vivo. From the text:
LD50 values above 1 g/kg are generally determined both after oral and intraperitoneal administration of the compounds of the invention.

Setting [7] is: Table 1, 0.153 M, oral twice a day, seven days period.

The values below come from patent EP0171005A2, “Xanthinylmethylthiazolidines, process for their preparation and pharmaceutical compositions containing them” (BOEHRINGER BIOCHEMIA ROBIN S.p.A., priority 1984, dated 1986).

Read-outs that look alike come from different tables or passages of the source.

As to `COc1cc(C=CC(=O)N2CCSC2Cn2cnc3c2c(=O)n(C)c(=O)n3C)cc(CN2CCOCC2)c1O` (centres unmarked) [2-LTl',3'-dimethyl-xanthin-7'-yl)methyl]-3-[(3-morpholinylmethyl-4'-hydroxy-5'-methoxy)cinnamoyi7thiazolidine], the EC50 in series [1] was determined as 190 µM. In addition, the “activity compared with aminophylline in the resolution of bronchospasm” value in series [2] is given as “at least four times more active than aminophylline”.

By inhibition is commonly meant the relative decrease from the control value, in per cent. Broadly, the ED50 is the dose at which the effect has come halfway, by size or by number of responders. Regarding `Cn1c(=O)c2c(ncn2CC2NC(C(=O)O)CS2)n(C)c1=O` (centres unmarked) [2-[(1',3'-dimethylxanthin-7'-yl)methyl]thiazolidine-4-carboxylic acid], the “duration of action compared with codeine” value in series [3] (20 mg/kg, dogs) is listed as “favourably compares with codeine for its duration of action”. Besides, the inhibition at 20 mg/kg in series [3] (Canis lupus familiaris, 20 mg/kg, oral, read-out: inhibition of the cough stimulus) is 32%. Further, the median effective dose (ED50) in series [4] (citric acid aerosol 7.5%, cough recorded 60 minutes after i.p. treatment, read-out: ED50) is 62 mg/kg. Moreover, in series [4], the “delay of first cough stroke” value was found to be 213%. Moreover, in series [4] (guinea pig cough test), the “duration of action compared with codeine” value was “more favourable duration of action in comparison to codeine”. Moreover, in series [5], the “Fucose (mg/ml), AUC as a 100% compared to bronchitic controls” value came to 77%; the “Galactose (mg/ml), AUC as a 100% compared to bronchitic controls” value turned out to be 82%; the “Mucus produc-tion (ml/kg), AUC as a 100% compared to bronchitic controls” value was determined as 128%; the “Phospho-lipids (mg/ml), AUC as a 100% compared to bronchitic controls” value turned out to be 78%. In series [5], the “Protein (mg/ml), AUC as a 100% compared to bronchitic controls” value came out at 80%; the “Sialic acid (mg/ml), AUC as a 100% compared to bronchitic controls” value is on record as 81%; the “Viscosity (cps), AUC as a 100% compared to bronchitic controls” value stood at 55%.

As to `Cn1c(=O)c2c(ncn2CC2NCCS2)n(C)c1=O` (centres unmarked) [2-[(1',3'-dimethylxanthin-7'-yl)methyl]thiazolidine], the LD50 in series [6] (ip, read-out: LD 50 (i.p.)) worked out at 480 mg/kg. Besides, the LD50 in series [6] (oral, read-out: LD 50 (os)) is 600 mg/kg. Moreover, in series [5], the “Fucose (mg/ml), AUC as a 100% compared to bronchitic controls” value is on record as 66%; the “Galactose (mg/ml), AUC as a 100% compared to bronchitic controls” value is 5%; the “Mucus produc-tion (ml/kg), AUC as a 100% compared to bronchitic controls” value was determined as 80%; the “Phospho-lipids (mg/ml), AUC as a 100% compared to bronchitic controls” value was 30%. Moreover, in series [5], the “Protein (mg/ml), AUC as a 100% compared to bronchitic controls” value came to 58%; the “Sialic acid (mg/ml), AUC as a 100% compared to bronchitic controls” value was 101%; the “Viscosity (cps), AUC as a 100% compared to bronchitic controls” value stood at 16%.

Regarding `N[C@@H](CSCC(=O)O)C(=O)O` [S-carboxy-methyl cy steine, S-carboxymethyl cysteine, reference compound], in series [5] (setting [7]), the “Fucose mg/ml, AUC as a % compared to bronchitis controls” value was 56%; the “Galactose mg/ml, AUC as a % compared to bronchitis controls” value was 64%; the “Mucus production ml/kg, AUC as a % compared to bronchitis controls” value is on record as 97%; the “Phospholipids mg/ml, AUC as a % compared to bronchitis controls” value was 108%. In series [5] (setting [7]), the “Protein mg/ml, AUC as a % compared to bronchitis controls” value worked out at 105%; the “Sialic acid mg/ml, AUC as a % compared to bronchitis controls” value amounted to 60%; the “Viscosity (cps), AUC as a % compared to bronchitis controls” value amounted to 52%.

As for `COc1ccc2c3c1O[C@H]1[C@@H](O)C=C[C@H]4[C@@H](C2)N(C)CC[C@@]341` [codeine phosphate, reference compound], the duration of activity in series [3] (8 mg/kg, oral) was 2 to 4 h. In addition, the inhibition at 8 mg/kg in series [3] (Canis lupus familiaris, po, read-out: inhibition of the cough stimulus) stood at 52%. In addition, in series [4], the 50% effective dose (ED50) was approximately 23 mg/kg and the “delay of first cough stroke” value was 170%.

Regarding `Cn1c(=O)c2c(ncn2CC(O)CO)n(C)c1=O` (centres unmarked) [dihydroxypropyltheophylline, reference compound], in series [1] (reference, unit inferred), the EC50 was determined as 76 µM.
